Measurements as given in PMC9584352, “Conserved Pib2 regions have distinct roles in TORC1 regulation at the vacuole” (Journal of Cell Science, 2022).

T1: Pib2 442–625 (Saccharomyces cerevisiae, UniProt P53191)
T1 construct: FYVE domain fragment, start of FYVE domain to beginning of tail motif, residues 442-625; purified; predominantly monomeric by SEC-MALS
T1 sequence (P53191 442-625): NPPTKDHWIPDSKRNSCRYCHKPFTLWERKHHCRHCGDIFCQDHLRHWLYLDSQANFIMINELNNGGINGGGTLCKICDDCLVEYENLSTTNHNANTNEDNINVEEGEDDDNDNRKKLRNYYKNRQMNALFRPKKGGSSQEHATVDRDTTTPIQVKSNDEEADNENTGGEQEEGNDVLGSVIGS

T2: EEA1 1287–1411 (Homo sapiens, UniProt Q15075)
T2 construct: purified; largely dimeric by SEC-MALS
T2 sequence (Q15075 1287-1411): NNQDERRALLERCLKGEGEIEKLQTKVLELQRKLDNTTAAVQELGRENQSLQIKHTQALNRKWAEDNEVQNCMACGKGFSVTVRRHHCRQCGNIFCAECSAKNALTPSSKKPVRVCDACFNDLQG

T3: Pib2 419–625 (Saccharomyces cerevisiae, UniProt P53191)
T3 construct: FYVE domain fragment starting 23 residues before the FYVE core, residues 419-625; purified; predominantly monomeric by SEC-MALS
T3 sequence (P53191 419-625): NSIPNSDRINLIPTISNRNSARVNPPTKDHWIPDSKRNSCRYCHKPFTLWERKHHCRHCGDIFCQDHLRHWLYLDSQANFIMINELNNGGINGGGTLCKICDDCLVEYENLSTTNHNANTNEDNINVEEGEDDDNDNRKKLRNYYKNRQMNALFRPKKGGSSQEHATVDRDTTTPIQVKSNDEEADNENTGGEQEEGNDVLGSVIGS

T4: EEA1 1347–1411 (Homo sapiens, UniProt Q15075)
T4 construct: purified; largely monomeric by SEC-MALS
T4 sequence (Q15075 1347-1411): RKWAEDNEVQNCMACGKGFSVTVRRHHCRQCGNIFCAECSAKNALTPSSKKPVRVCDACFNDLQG

B1: EEA1 1287–1411 (domain or fragment, UniProt Q15075 1287-1411, looked up)
chain: T2 sequence (Q15075 1287-1411)
notes: also called longer EEA1 FYVE construct; source: purified

What was measured:
[1] = target: T1, Pib2 442–625; test: ITC; assay type: binding
[2] = target: T2, EEA1 1287–1411; test: ITC; assay type: binding
[3] = target: T3, Pib2 419–625; test: ITC; assay type: binding
[4] = target: T4, EEA1 1347–1411; test: ITC; assay type: binding
[5] = target: the molecule itself; test: SEC-MALS; Superdex 75 10/300 in 20 mM Tris-HCl pH 7.4, 150 mM NaCl, 1.93 mM β-mercaptoethanol, room temperature; 500 µl of each protein loaded at 50 or 100 µM as indicated; detectors at 25°C

Molecule	Kd [1]	Kd [2]	Kd [3]	Kd [4]	stoichiometry N [5]
CCCC(=O)OC[C@H](COP(=O)(O)O[C@@H]1[C@H](O)[C@H](OP(=O)(O)O)[C@@H](O)[C@H](O)[C@H]1O)OC(=O)CCC [PI3P diC4]	736 µM	–	–	–	–
O=P(O)(O)O[C@@H]1[C@H](O)[C@H](OP(=O)(O)O)[C@@H](O)[C@H](O)[C@H]1O [inositol 1,3-bisphosphate]	212 µM	~95.8 µM	> 290 µM	> 300 µM	–
B1	–	–	–	–	2
